ChEMBL document CHEMBL4507280 (2021)

Experiments:
[1] = test system: Phosphatidylinositol 4,5-bisphosphate 3-kinase catalytic subunit alpha isoform (Homo sapiens), P42336 [H1047L]; conditions: Compound concentration 1000.0 nM
[2] = test system: Proto-oncogene tyrosine-protein kinase receptor Ret (Homo sapiens), P07949 [M918T]; conditions: Compound concentration 1000.0 nM
[3] = target: Epidermal growth factor receptor (Homo sapiens) (UniProt P00533); conditions: Compound concentration 1000.0 nM
[4] = test system: Epidermal growth factor receptor (Homo sapiens), P00533 [UNDEFINED MUTATION]; conditions: Compound concentration 1000.0 nM
[5] = target: Ribosomal protein S6 kinase alpha-3 (Homo sapiens) (UniProt P51812); conditions: Compound concentration 1000.0 nM
[6] = target: Inhibitor of nuclear factor kappa-B kinase subunit epsilon (Homo sapiens) (UniProt Q14164); conditions: Compound concentration 1000.0 nM
[7] = target: Mast/stem cell growth factor receptor Kit (Homo sapiens) (UniProt P10721); conditions: Compound concentration 1000.0 nM
[8] = target: Angiopoietin-1 receptor (Homo sapiens) (UniProt Q02763); conditions: Compound concentration 1000.0 nM
[9] = target: Activin receptor type-2A (Homo sapiens) (UniProt P27037); conditions: Compound concentration 1000.0 nM
[10] = target: Phosphatidylinositol 4,5-bisphosphate 3-kinase catalytic subunit beta isoform (Homo sapiens) (UniProt P42338); conditions: Compound concentration 1000.0 nM
[11] = test system: Epidermal growth factor receptor (Homo sapiens), P00533 [UNDEFINED MUTATION]; conditions: Compound concentration 1000.0 nM; remark: listed apart in the source
[12] = target: Ephrin type-A receptor 2 (Homo sapiens) (UniProt P29317); conditions: Compound concentration 1000.0 nM
[13] = test system: Hepatocyte growth factor receptor (Homo sapiens), P08581 [M1250T]; conditions: Compound concentration 1000.0 nM
[14] = target: Mitogen-activated protein kinase kinase kinase 15 (Homo sapiens) (UniProt Q6ZN16); conditions: Compound concentration 1000.0 nM
[15] = target: Dual specificity protein kinase CLK2 (Homo sapiens) (UniProt P49760); conditions: Compound concentration 1000.0 nM
[16] = target: RAC-alpha serine/threonine-protein kinase (Homo sapiens) (UniProt P31749); conditions: Compound concentration 1000.0 nM
[17] = target: Ribosomal protein S6 kinase alpha-2 (Homo sapiens) (UniProt Q15349); conditions: Compound concentration 1000.0 nM
[18] = target: Serine/threonine-protein kinase WNK2 (Homo sapiens) (UniProt Q9Y3S1); conditions: Compound concentration 1000.0 nM
[19] = target: Mitogen-activated protein kinase 1 (Homo sapiens) (UniProt P28482); conditions: Compound concentration 1000.0 nM
[20] = target: Serine/threonine-protein kinase haspin (Homo sapiens) (UniProt Q8TF76); conditions: Compound concentration 1000.0 nM
[21] = target: Atypical kinase COQ8A, mitochondrial (Homo sapiens) (UniProt Q8NI60); conditions: Compound concentration 1000.0 nM
[22] = target: Mitogen-activated protein kinase kinase kinase 19 (Homo sapiens) (UniProt Q56UN5); conditions: Compound concentration 1000.0 nM
[23] = target: BDNF/NT-3 growth factors receptor (Homo sapiens) (UniProt Q16620); conditions: Compound concentration 1000.0 nM
[24] = target: Serine/threonine-protein kinase DCLK2 (Homo sapiens) (UniProt Q8N568); conditions: Compound concentration 1000.0 nM
[25] = test system: Mast/stem cell growth factor receptor Kit (Homo sapiens), P10721 [D816H]; conditions: Compound concentration 1000.0 nM
[26] = test system: Hepatocyte growth factor receptor (Homo sapiens), P08581 [Y1235D]; conditions: Compound concentration 1000.0 nM
[27] = test system: ALK tyrosine kinase receptor (Homo sapiens), Q9UM73 [C1156Y]; conditions: Compound concentration 1000.0 nM
[28] = target: Citron Rho-interacting kinase (Homo sapiens) (UniProt O14578); conditions: Compound concentration 1000.0 nM
[29] = target: Muscle, skeletal receptor tyrosine-protein kinase (Homo sapiens) (UniProt O15146); conditions: Compound concentration 1000.0 nM
[30] = target: Serine/threonine-protein kinase RIO1 (Homo sapiens) (UniProt Q9BRS2); conditions: Compound concentration 1000.0 nM
[31] = target: T1, Muscarinic acetylcholine receptor M2 (Homo sapiens) (UniProt P08172); conditions: Compound concentration 10.0 uM
T1 sequence (whole entry): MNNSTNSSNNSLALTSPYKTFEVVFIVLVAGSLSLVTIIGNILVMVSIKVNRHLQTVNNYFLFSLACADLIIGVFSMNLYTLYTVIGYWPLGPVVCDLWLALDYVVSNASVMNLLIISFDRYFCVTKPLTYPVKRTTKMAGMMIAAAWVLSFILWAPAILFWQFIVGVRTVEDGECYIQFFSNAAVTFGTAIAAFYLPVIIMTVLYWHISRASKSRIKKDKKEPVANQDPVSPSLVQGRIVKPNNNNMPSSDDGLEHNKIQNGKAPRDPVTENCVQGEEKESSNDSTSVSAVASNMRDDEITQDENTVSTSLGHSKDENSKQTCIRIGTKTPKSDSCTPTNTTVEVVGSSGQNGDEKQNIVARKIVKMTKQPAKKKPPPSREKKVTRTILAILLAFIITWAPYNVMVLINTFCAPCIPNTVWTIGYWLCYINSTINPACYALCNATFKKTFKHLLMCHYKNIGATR

[32] = target: cAMP-dependent protein kinase catalytic subunit PRKX (Homo sapiens) (UniProt P51817); conditions: Compound concentration 1000.0 nM
[33] = target: Serine/threonine-protein kinase MRCK alpha (Homo sapiens) (UniProt Q5VT25); conditions: Compound concentration 1000.0 nM
[34] = target: Protein kinase C theta type (Homo sapiens) (UniProt Q04759); conditions: Compound concentration 1000.0 nM
[35] = target: Calcium/calmodulin-dependent protein kinase type II subunit beta (Homo sapiens) (UniProt Q13554); conditions: Compound concentration 1000.0 nM
[36] = target: Serine/threonine-protein kinase WNK3 (Homo sapiens) (UniProt Q9BYP7); conditions: Compound concentration 1000.0 nM
[37] = target: Death-associated protein kinase 1 (Homo sapiens) (UniProt P53355); conditions: Compound concentration 1000.0 nM
[38] = target: SRSF protein kinase 3 (Homo sapiens) (UniProt Q9UPE1); conditions: Compound concentration 1000.0 nM

Chain of Epidermal growth factor receptor (Homo sapiens), P00533 [UNDEFINED MUTATION] (P00533 whole entry, looked up, change not shown): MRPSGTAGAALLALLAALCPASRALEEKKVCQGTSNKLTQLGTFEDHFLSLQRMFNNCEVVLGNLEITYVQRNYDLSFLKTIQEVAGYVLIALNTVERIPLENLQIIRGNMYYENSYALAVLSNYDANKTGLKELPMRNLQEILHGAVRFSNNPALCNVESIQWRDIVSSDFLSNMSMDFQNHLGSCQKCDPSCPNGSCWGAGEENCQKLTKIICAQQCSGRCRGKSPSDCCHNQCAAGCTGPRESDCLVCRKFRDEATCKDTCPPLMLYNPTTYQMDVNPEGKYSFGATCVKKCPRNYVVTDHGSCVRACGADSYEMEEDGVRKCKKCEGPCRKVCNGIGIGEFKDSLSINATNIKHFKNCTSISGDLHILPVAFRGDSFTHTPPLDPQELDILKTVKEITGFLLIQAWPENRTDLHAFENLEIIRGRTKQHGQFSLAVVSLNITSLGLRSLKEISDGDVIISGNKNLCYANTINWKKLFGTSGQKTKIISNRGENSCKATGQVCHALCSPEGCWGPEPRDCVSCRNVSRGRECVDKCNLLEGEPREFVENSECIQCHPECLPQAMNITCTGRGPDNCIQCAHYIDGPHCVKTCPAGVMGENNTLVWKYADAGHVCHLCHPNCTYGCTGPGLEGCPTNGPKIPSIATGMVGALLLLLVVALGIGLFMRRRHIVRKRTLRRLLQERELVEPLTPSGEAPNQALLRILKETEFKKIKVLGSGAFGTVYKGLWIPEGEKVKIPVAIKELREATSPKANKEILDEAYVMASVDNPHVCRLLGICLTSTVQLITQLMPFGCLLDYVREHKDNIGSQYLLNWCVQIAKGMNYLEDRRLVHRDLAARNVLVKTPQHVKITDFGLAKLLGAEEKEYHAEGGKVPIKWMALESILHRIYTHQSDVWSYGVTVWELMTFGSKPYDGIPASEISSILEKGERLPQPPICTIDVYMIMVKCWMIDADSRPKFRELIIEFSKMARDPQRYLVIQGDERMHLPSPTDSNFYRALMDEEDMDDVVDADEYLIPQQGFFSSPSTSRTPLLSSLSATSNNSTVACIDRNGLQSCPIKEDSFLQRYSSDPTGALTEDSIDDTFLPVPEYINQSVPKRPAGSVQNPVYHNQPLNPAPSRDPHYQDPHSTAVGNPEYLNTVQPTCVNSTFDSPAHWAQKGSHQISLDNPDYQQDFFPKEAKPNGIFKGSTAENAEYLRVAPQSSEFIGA
Chain of cAMP-dependent protein kinase catalytic subunit PRKX (Homo sapiens) (P51817 whole entry): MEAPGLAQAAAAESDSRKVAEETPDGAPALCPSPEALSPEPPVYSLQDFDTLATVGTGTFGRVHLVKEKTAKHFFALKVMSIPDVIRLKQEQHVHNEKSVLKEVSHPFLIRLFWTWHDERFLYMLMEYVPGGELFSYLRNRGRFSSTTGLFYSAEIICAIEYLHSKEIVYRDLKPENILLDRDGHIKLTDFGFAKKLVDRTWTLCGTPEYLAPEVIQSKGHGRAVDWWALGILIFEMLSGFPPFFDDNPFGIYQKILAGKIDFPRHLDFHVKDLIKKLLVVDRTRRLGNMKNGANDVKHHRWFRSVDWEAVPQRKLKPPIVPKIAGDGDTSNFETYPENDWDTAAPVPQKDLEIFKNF
Chain of Mast/stem cell growth factor receptor Kit (Homo sapiens), P10721 [D816H] (P10721 whole entry D816H): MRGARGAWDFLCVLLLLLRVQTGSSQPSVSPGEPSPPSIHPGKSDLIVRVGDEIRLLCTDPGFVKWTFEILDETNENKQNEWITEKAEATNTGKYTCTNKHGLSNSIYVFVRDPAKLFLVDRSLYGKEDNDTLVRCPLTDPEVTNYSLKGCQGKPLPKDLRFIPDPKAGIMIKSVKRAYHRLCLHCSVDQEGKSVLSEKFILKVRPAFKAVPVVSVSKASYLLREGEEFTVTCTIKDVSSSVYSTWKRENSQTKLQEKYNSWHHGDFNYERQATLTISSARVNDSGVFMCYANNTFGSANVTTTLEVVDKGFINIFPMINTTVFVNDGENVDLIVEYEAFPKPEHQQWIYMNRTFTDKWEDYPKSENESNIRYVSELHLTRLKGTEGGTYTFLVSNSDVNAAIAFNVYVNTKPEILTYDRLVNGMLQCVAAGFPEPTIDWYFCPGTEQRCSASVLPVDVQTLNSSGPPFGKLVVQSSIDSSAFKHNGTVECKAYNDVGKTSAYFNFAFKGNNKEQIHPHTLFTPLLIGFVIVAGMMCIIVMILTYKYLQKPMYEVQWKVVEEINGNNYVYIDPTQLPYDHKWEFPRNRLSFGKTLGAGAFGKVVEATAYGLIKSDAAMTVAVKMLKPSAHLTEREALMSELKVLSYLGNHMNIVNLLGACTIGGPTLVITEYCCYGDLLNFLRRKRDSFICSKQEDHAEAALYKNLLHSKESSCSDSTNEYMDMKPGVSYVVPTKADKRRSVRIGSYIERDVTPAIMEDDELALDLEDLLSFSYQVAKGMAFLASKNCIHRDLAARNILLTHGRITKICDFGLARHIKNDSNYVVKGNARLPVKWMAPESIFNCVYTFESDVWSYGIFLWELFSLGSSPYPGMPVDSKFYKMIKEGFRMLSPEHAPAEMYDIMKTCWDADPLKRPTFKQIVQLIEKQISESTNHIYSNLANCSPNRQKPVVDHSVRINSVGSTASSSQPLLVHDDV
Chain of Atypical kinase COQ8A, mitochondrial (Homo sapiens) (Q8NI60 163-647 limits assumed): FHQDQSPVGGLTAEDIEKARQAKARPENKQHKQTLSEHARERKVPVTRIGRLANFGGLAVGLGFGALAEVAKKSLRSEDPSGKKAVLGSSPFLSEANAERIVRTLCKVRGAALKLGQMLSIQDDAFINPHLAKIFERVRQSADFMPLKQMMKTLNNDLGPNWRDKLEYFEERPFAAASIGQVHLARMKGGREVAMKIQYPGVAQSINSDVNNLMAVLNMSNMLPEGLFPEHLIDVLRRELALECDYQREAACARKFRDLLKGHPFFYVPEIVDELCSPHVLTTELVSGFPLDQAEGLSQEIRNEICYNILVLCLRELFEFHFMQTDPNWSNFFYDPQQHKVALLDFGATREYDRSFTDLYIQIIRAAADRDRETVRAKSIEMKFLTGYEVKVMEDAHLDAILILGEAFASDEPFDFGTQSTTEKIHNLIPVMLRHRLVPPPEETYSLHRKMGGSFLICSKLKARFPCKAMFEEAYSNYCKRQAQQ
Chain of Mast/stem cell growth factor receptor Kit (Homo sapiens) (P10721 whole entry): as the sequence (P10721 whole entry D816H) above, with H816D counted along it
Chain of Ephrin type-A receptor 2 (Homo sapiens) (P29317 whole entry): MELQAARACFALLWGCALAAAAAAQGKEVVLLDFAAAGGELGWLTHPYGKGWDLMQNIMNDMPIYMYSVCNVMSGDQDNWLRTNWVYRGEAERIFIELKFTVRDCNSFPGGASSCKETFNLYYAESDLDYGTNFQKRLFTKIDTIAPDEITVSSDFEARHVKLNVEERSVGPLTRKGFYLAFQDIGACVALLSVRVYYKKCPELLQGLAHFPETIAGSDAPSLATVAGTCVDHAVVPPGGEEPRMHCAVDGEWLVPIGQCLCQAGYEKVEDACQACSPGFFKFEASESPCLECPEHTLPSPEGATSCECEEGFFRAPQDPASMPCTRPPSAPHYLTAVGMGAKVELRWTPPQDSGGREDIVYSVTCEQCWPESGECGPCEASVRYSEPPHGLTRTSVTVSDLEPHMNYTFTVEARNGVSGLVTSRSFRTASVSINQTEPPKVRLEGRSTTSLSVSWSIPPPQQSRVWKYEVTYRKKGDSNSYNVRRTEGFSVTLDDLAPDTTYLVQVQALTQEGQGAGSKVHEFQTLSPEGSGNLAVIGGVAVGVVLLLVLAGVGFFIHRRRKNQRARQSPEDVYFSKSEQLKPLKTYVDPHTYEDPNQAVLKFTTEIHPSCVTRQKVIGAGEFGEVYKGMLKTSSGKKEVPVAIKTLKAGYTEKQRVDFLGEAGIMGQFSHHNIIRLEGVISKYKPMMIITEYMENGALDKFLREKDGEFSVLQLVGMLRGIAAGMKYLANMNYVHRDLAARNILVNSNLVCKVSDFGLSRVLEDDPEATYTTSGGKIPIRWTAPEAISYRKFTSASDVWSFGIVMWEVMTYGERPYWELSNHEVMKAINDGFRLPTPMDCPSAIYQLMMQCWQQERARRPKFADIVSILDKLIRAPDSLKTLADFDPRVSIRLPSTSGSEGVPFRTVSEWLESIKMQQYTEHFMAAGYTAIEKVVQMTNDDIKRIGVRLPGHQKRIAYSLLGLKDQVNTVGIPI
Chain of Activin receptor type-2A (Homo sapiens) (P27037 whole entry, canonical isoform): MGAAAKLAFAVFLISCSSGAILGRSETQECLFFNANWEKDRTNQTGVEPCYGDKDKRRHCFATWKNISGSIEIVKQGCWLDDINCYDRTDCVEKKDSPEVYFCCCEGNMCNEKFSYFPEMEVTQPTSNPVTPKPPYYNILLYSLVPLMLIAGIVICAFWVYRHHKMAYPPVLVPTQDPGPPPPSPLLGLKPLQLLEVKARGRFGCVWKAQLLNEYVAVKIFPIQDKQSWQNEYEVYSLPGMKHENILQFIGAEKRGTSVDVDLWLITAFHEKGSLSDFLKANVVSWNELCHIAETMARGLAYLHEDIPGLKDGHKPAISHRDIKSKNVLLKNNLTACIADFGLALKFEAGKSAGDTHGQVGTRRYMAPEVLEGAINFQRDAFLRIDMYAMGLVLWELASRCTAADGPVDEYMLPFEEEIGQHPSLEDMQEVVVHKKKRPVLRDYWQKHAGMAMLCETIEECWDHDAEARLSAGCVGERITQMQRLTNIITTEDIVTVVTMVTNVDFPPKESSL
Chain of Dual specificity protein kinase CLK2 (Homo sapiens) (P49760 whole entry, looked up): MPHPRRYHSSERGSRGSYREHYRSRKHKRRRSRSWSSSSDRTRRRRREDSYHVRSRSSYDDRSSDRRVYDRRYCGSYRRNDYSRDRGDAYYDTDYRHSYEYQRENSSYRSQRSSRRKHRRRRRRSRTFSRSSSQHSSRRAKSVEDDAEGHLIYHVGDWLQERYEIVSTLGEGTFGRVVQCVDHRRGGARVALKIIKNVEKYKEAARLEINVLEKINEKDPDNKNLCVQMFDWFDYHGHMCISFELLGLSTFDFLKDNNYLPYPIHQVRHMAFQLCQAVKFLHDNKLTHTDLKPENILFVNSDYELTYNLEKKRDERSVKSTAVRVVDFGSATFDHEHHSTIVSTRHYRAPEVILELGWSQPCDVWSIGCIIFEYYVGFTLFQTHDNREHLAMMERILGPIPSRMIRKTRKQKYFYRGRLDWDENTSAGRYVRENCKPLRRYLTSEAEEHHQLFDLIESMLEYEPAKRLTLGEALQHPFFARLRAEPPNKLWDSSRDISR

CCC(=O)N[C@H]1CC[C@@H](C(=O)N(C)c2ccc(-c3nc4ccccc4o3)cc2)C1 [BI 99179]
inactive: residual activity [1] 78% | residual activity [2] 100% | residual activity [3] 100% | residual activity [4] 100% | residual activity [5] 88% | residual activity [6] 52% | residual activity [7] 84% | residual activity [8] 85% | residual activity [9] 98% | residual activity [10] 100% | residual activity [11] 97% | residual activity [12] 100% | residual activity [13] 92% | residual activity [14] 100% | residual activity [15] 95% | residual activity [16] 97% | residual activity [17] 100% | residual activity [18] 74% | residual activity [19] 76% | residual activity [20] 100% | residual activity [21] 100% | residual activity [22] 69% | residual activity [23] 100% | residual activity [24] 98% | residual activity [25] 85% | residual activity [26] 100% | residual activity [27] 100% | residual activity [28] 99% | residual activity [29] 100% | residual activity [30] 99% | inhibition [31] 4.58% | residual activity [32] 91% | residual activity [33] 87% | residual activity [34] 84% | residual activity [35] 94% | residual activity [36] 92% | residual activity [37] 96% | residual activity [38] 100%

CCC(=O)N[C@@H]1CC[C@H](C(=O)N(C)c2ccc(-c3nc4ccccc4o3)cc2)C1 [BI 99990]
inactive: residual activity [1] 97% | residual activity [2] 100% | residual activity [3] 100% | residual activity [4] 88% | residual activity [5] 91% | residual activity [6] 60% | residual activity [7] 93% | residual activity [8] 82% | residual activity [9] 100% | residual activity [10] 100% | residual activity [11] 100% | residual activity [12] 94% | residual activity [13] 100% | residual activity [14] 100% | residual activity [15] 100% | residual activity [16] 100% | residual activity [17] 100% | residual activity [18] 92% | residual activity [19] 88% | residual activity [20] 100% | residual activity [21] 99% | residual activity [22] 92% | residual activity [23] 100% | residual activity [24] 89% | residual activity [25] 100% | residual activity [26] 100% | residual activity [27] 100% | residual activity [28] 93% | residual activity [29] 100% | residual activity [30] 100% | inhibition [31] 17.9% | residual activity [32] 100% | residual activity [33] 100% | residual activity [34] 76% | residual activity [35] 100% | residual activity [36] 100% | residual activity [37] 100% | residual activity [38] 100%
